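Five concentrations, 48 hours, 96-well plates. The concentration for 50% growth inhibition is given as GI50. TGI marks complete inhibition of growth.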
How the values were obtained:
Assay in all cases: DTP human tumour cell line panel, 48 h
[1] = tested on: NCI/ADR-RES ovarian
[2] = tested on: SK-MEL-2 melanoma
[3] = tested on: NCI-H460 lung
[4] = tested on: SNB-75 CNS
[5] = tested on: HCC-2998 colon
[6] = tested on: NCI-H522 lung
[7] = tested on: HL-60(TB) leukemia
[8] = tested on: PC-3 prostate

Structure (SMILES)	GI50 [1]	TGI [1]	GI50 [2]	TGI [2]	GI50 [3]	TGI [3]	GI50 [4]	TGI [4]	GI50 [5]	TGI [5]	GI50 [6]	TGI [6]	GI50 [7]	TGI [7]	GI50 [8]	TGI [8]
C=CC(=O)N1CCN(c2nc(=O)n(-c3c(C)ccnc3C(C)C)c3nc(-c4c(O)cccc4F)c(F)cc23)[C@@H](C)C1	> 100 µM	> 100 µM	31 µM	> 78 µM	43.4 µM	> 100 µM	36.1 µM	> 91.4 µM	19.1 µM	35.9 µM	29.8 µM	> 100 µM	20.5 µM	53.8 µM	31.8 µM	> 96.3 µM
COc1cc(C)c(Cl)cc1C1=NN(c2ccc(S(N)(=O)=O)cc2)C(/C=C/c2ccccc2)C1 (stereo unspecified)	3.46 µM	37.7 µM	3.24 µM	8.75 µM	2.43 µM	6.3 µM	3 µM	30.1 µM	2.57 µM	8.49 µM	2.3 µM	5.34 µM	3.6 µM	16 µM	3.11 µM	13.8 µM
O=C(Nc1cccc(Cl)c1)c1ccc(NC2=C(Cl)C(=O)N(Cc3ccccc3)C2=O)cc1	9.53 µM	24.9 µM	18.9 µM	> 100 µM	9.11 µM	> 50.9 µM			1.68 µM	3.83 µM	5.6 µM	> 44.6 µM	3.79 µM	15.2 µM	9.48 µM	24.1 µM
COc1cc(-c2nn(-c3cccc(NC(=O)Nc4cc(C(F)(F)F)cc(C(F)(F)F)c4)c3)cc2-c2ccncc2)ccc1Cl	1.02 µM	7.25 µM	1.01 µM	2.04 µM	0.366 µM	1.64 µM	0.961 µM	2.74 µM	1.09 µM	2.65 µM	0.356 µM	1.43 µM	0.551 µM	11.9 µM	0.176 µM	1.18 µM
COc1ccc(/C=C/C(=O)c2ccc(SC)cc2)cc1OC	10.9 µM	27.3 µM	19.4 µM	42.6 µM	70.6 µM	> 100 µM	17 µM	37.2 µM	3.27 µM	12.1 µM	5 µM	27.4 µM	25.7 µM	79.6 µM	11.5 µM	25.6 µM
COC1CC2CCC(C)C(O)(O2)C(=O)C(=O)N2CCCCC2C(=O)OC(C(C)CC2CCC(O)C(OC)C2)CC(=O)C(C)C=C(C)C(O)C(OC)C(=O)C(C)CC(C)/C=C/C=C/C=C1C (stereo unspecified)	1.86 µM	30.3 µM	5.19 µM	12.3 µM	< 0.005 µM	11.5 µM	< 0.005 µM	7.93 µM	0.263 µM	11.4 µM	1.99 µM	11.3 µM	10.2 µM	23.6 µM	< 0.005 µM	13 µM
O=C(c1ccco1)c1nc2cc(Cl)ccc2[n+]([O-])c1C(F)(F)F	52.4 µM	> 100 µM	> 100 µM	> 100 µM	57 µM	> 100 µM	46 µM	> 100 µM	18.5 µM	34.9 µM	45.1 µM	> 100 µM	24.3 µM	46.8 µM	13.7 µM	41.4 µM
Cc1ccc(/C=C2/SC(Nc3nc(-c4csc(NC5=NC(=O)/C(=C\c6ccc(C)cc6)S5)n4)cs3)=NC2=O)cc1	14.3 µM	> 50 µM	> 50 µM	> 50 µM	4.36 µM	> 50 µM			7.23 µM	27.7 µM	21.6 µM	> 50 µM	2.03 µM	29.9 µM	6.52 µM	> 50 µM
C=C1C(=O)O[C@H]2[C@H]1CC/C(Cn1cc(-c3cc(C(F)(F)F)cc(C(F)(F)F)c3)nn1)=C\CC[C@@]1(C)O[C@@H]21			0.348 µM	1.49 µM	1.22 µM	2.67 µM	1.26 µM	2.52 µM	1.17 µM	2.51 µM	0.122 µM	0.27 µM	0.19 µM	0.484 µM	0.832 µM	2.33 µM
O=C(Nc1cc(Cl)cc(Cl)c1)c1ccc(NC2=C(Cl)C(=O)N(Cc3ccc(Cl)cc3Cl)C2=O)cc1	29.7 µM	> 100 µM	23.5 µM	43.9 µM	16.6 µM	> 100 µM	68 µM	> 100 µM	15 µM	36.9 µM	15.7 µM	34.3 µM			13.1 µM	25.8 µM
Cc1ccccc1N=Nc1ccc(NC(=O)c2ccnn2C)c(C)c1	63.7 µM	> 100 µM	28.6 µM	> 100 µM	26.5 µM	> 100 µM	3.66 µM	33.5 µM	> 100 µM	> 100 µM	30 µM	> 100 µM			92.7 µM	> 100 µM
COc1cc(/C=C(\C#N)C(=O)c2ccccc2)ccc1O				> 100 µM		> 100 µM				> 100 µM		> 100 µM		> 100 µM		
Fc1ccc2c(c1)c(-c1nc(-c3c[nH]c4ncccc34)cs1)cn2CCCN1CCCCC1	1.64 µM	3.15 µM	1.96 µM	4.25 µM			1.34 µM	2.98 µM	1.7 µM	3.14 µM					1.69 µM	3.2 µM
O=C1c2cc3c(cc2-c2c1c1ccc(Cl)cc1c(=O)n2CCCNCCO)OCO3	0.0585 µM	1.9 µM	1.97 µM	3.54 µM	0.0342 µM	1.34 µM			1.15 µM	2.46 µM	0.0372 µM	1.58 µM	0.0367 µM	1.08 µM	1.07 µM	2.55 µM
O=C1C(Cl)=C(Nc2cccc(Cl)c2)C(=O)N1Cc1ccccc1Cl			4.33 µM	23.1 µM	11.8 µM	27 µM	5.48 µM	30 µM			2.87 µM	23.3 µM	3.15 µM	19.6 µM	4.8 µM	21.3 µM
Cc1ccc(-n2c3c(c4c(CN(C)C)c(O)ccc42)CCc2ccccc2C3=O)cc1	14.5 µM	34.7 µM	19.9 µM	44.5 µM	18.3 µM	41.9 µM			12.2 µM	24.9 µM	14.9 µM	32.7 µM	9.49 µM	24.5 µM	17.5 µM	38.4 µM

Source: PubChem BioAssay (NCI)
